In US20220119355A1, “SATURATED-RING-FUSED DIHYDROPYRIMIDINONE OR DIHYDROTRIAZINONE COMPOUNDS AND PHARMACEUTICAL USE THEREOF” (Japan Tobacco Inc., priority 2018, published 2022) one finds EC50 data, which are given here for 26 compounds.

A word on the EC50: it is the concentration that produces a half-maximal response.

Molecules are shown by their SMILES.

What all share (type): cell-based
For assay [1], the target named is T1, human RORγ (Homo sapiens, UniProt P51449).
T1 construct: from Ser253 to Lys518 for human RORγ; expressed in transfected cells; host or cells: CHO cells (transient co-transfection with pG5-Luc)
T1 sequence (P51449 253-518): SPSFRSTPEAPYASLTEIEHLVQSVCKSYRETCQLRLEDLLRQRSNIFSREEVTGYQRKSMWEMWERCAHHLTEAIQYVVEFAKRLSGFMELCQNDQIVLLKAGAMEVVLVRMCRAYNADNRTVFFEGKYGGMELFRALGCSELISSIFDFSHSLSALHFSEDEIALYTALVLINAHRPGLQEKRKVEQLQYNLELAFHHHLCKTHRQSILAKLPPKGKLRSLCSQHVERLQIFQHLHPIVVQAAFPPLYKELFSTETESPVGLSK
Description: In-vitro reporter gene assay for inhibitory activity against RORγ transcription, Test Method B (pFA/hRORγ LBD / pG5-Luc in CHO cells). Conditions: luciferase reporter, CHO cells, 2 days. As for the experimental part:
(§1) In-Vitro Assay for Inhibitory Activity Against RORγ Transcription
(§2) Inhibitory activity against RORγ transcription was assessed for test compounds by either of the following Test Method A or B of reporter gene assay.
(§3) cDNAs encoding human and mouse RORγ ligand binding domains (LBD) were obtained based on the sequences of human RORγ (Genbank registered number NM_005060.3) and mouse RORγ (Genbank registered number NM_011281.2) (LBD sequences: from Ser253 to Lys518 for human RORγ; from Ile251 to Lys516 for mouse RORγ).
(§4) LBD cDNAs of human and mouse RORγ were inserted into pFA-CMV vector (Agilent Technologies, Inc.), which expresses GAL4-DNA binding domain fusion protein. The resulting plasmids are hereinafter referred to as pFA/hRORγ plasmid and pFA/mRORγ plasmid, respectively.
(§5) pFA/hRORγ plasmid or pFA/mRORγ plasmid was transiently co-transfected into Chinese hamster ovary cells (CHO cells) with pG5-Luc (Promega), reporter plasmid expressing firefly luciferase in a GAL4-dependent manner.
(§6) TransIT (Registered trademark) CHO Transfection Kit (Mirus) was used to co-transfect CHO cells with the plasmids. One day prior to the assay, CHO cells were suspended in HAM F-12 Nutrient medium containing 10% (v/v) fetal bovine serum and seeded at 5.5×10^6 cells per 225 cm^2 cell culture flask each. 72 μL of TransIT (Registered trademark) CHO reagent was added into a 2 mL tube containing 1.55 mL of Opti-MEM, and then mixed and incubated at room temperature for 10 minutes. 50.4 μL of a plasmid solution containing 300 ng of pFA/hRORγ plasmid, 12000 ng of pG5-Luc plasmid, and 11700 ng of pcDNA3.1 plasmid were added into the tube and mixed gently. In the case of mouse assay, a plasmid solution containing 300 ng of pFA/mRORγ plasmid, 12000 ng of pG5-Luc plasmid, and 11700 ng of pcDNA3.1 plasmid was added, instead. The mixture was incubated at room temperature for 10 minutes. 12 μL each of CHO Mojo Reagent were then added into each tube and mixed gently. The mixture was incubated at room temperature for 10 minutes. The resulting transfection reagent was applied to the cell culture. After incubation at 37° C., 5% CO2 for 4 hours, the plasmid-transfected CHO cells were harvested by trypsin treatment. The collected cells were resuspended in culture medium and plated into a 384-well-white plate at 8,000 cells/35 μL/well. The plate was let stand at room temperature for 1 hour and then further incubated at 37° C., 5% CO2 for 3 hours. A test compound was dissolved in dimethyl sulfoxide (DMSO) to obtain a concentration of 10 mM. Each solution was serially diluted with DMSO and further diluted with culture medium just before use. The test compound solutions were added to the cells in the plate at 6 different concentrations. The final concentration of DMSO was 0.2% (v/v). After the addition of test compound, the cells were incubated at 37° C., 5% CO2 for 2 days.
(§7) RORγ transcriptional activity was detected as the intracellular luciferase activity using SteadyLite HTS Reporter Gene Assay System (Perkin Elmer). SteadyLite Reagent was diluted 2.5-fold with Extension buffer (10 mM Tricine, 0.2% (w/v) bovine serum albumin, 0.02% (v/v) Tween-20) to obtain a luciferase substrate solution. Two days after the addition of test compound, 40 μL each of the luciferase substrate solution was added into the 384-well-plate. After the incubation at room temperature for 10 minutes, luminescence of each well was measured with a microplate reader. The luciferase activity derived from the luminescence count in a vehicle-control well treated with 0.2% DMSO alone was defined as 100%, and the luciferase activity after treatment of the test compound was calculated as a percentage, %-of-control, based on the value of the vehicle-control. An EC50 value of the test compound was calculated by curve fitting. The luminescence counts at the concentration of test compound where cytotoxicity was observed were excluded from data analysis. […]
On the technique in general: Reporter assays use an easily measured gene product as a stand-in for the process of interest.

The target in assay [2] is T2, mouse RORγ (Mus musculus, UniProt P51450).
T2 construct: from Ile251 to Lys516 for mouse RORγ; expressed in transfected cells; host or cells: CHO cells (transient co-transfection with pG5-Luc)
T2 sequence (P51450 251-516): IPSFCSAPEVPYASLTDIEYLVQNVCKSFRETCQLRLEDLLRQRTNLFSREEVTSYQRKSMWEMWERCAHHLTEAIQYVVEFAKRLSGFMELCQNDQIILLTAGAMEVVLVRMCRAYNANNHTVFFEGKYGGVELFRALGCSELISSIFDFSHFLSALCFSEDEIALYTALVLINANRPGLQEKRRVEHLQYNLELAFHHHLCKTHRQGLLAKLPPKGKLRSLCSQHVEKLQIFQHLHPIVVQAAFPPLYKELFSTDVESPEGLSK
Kind of assay: In-vitro reporter gene assay for inhibitory activity against RORγ transcription, Test Method B (pFA/mRORγ LBD / pG5-Luc in CHO cells). To be noted: luciferase reporter, CHO cells, 2 days. As for the experimental part:
as §1, §2, §3, §4, §5, §6, §7

Assay [3] deals with T2, mouse RORγ. Description: In-vitro reporter gene assay for inhibitory activity against RORγ transcription, Test Method A (GAL4-mRORγ LBD / pG5-Luc in CHO cells). Conditions: luciferase reporter, 2 days.
The target in assay [4] is T1, human RORγ. Kind of assay: In-vitro reporter gene assay for inhibitory activity against RORγ transcription, Test Method A (GAL4-hRORγ LBD / pG5-Luc in CHO cells). Conditions: luciferase reporter, 2 days.

`C[C@H]1CCC2(c3ccc(C4C(C(C)(C)C)C4(F)F)c(Cl)c3)NC(=O)N(C34CC(C(=O)O)(C3)C4)C=C2[C@@H]1C` (single isomer, unassigned) [Example 114]: the EC50 turned out to be 0.027 µM on human RORγ [1] and 0.05 µM at mouse RORγ [2].

With `CC1C2=CN(C34CCC(C(=O)O)(C3)C4)C(=O)N[C@]2(c2ccc(CCC(C)(C)C)c(Cl)c2)COC1(C)C` (single isomer, unassigned) [Example 121], the EC50 was determined as 0.035 µM at human RORγ [1] and 0.04 µM on mouse RORγ [2].

Consider `CC(C)(C)CCc1ccc([C@]23CCC(F)(F)CC2=CN(C24CC(C(=O)O)(C2)C4)C(=O)N3)cc1Cl` (single isomer, unassigned) [Example 86], for which the figures for the EC50 at human RORγ [1] and at mouse RORγ [2] were 4.94 µM and 4.37 µM, respectively.

For the compound `CC1CC[C@]2(c3ccc(CCC(C)(C)C)c(Cl)c3)NC(=O)N(C34CC(C(=O)O)(C3)C4)C=C2C1` (single isomer, unassigned) [Example 91], the EC50 on human RORγ [1] worked out at 0.111 µM; at mouse RORγ [2], 0.185 µM.

In the case of `CC1(C)CC(COc2ccc(C34CCCCC3=CN(CCC(=O)O)C(=O)N4)cc2Cl)C1` (racemic) [Example 100], the EC50 at human RORγ [1] worked out at 0.206 µM; on mouse RORγ [2], 0.055 µM.

As for `CC(C)(C)CCc1ccc(C23CCC(C#N)CC2=CN(C24CC(C(=O)O)(C2)C4)C(=O)N3)cc1Cl` (single isomer, unassigned) [Example 97], the EC50 stood at 0.11 µM at human RORγ [1] and 0.156 µM on mouse RORγ [2].

With `CC(C)(C)CCc1ccc([C@]23CCC(C)(C)CC2=CN(C24CC(C(=O)O)(C2)C4)C(=O)N3)cc1Cl` (single isomer, unassigned) [Example 102], the EC50 was 3.95 µM at human RORγ [1] and 4.57 µM on mouse RORγ [2].

In the case of `CC1CC[C@@]2(c3ccc(CCC(C)(C)C)c(Cl)c3)NC(=O)N(C34CC(C(=O)O)(C3)C4)C=C2C1` (single isomer, unassigned) [Example 90], the values for the EC50 on human RORγ [1] and on mouse RORγ [2] were 0.022 µM and 0.023 µM, respectively.

As for `C[C@H]1CCC2(c3ccc(C4C(C(C)(C)C)C4(F)F)c(Cl)c3)NC(=O)N(C34CCC(C(=O)O)(C3)C4)C=C2[C@@H]1C` (single isomer, unassigned) [Example 116], the EC50 at human RORγ [1] came out at 0.044 µM; at mouse RORγ [2], 0.101 µM.

Consider `CC(C)C1CC[C@@]2(c3ccc(CCC(C)(C)C)c(Cl)c3)NC(=O)N([C@H]3CC[C@@H](C(=O)O)C3)C=C2C1` (single isomer, unassigned) [Example 105], for which the EC50 on human RORγ [1] is 0.102 µM; at mouse RORγ [2], 0.113 µM.

For the compound `CC1CC[C@@]2(c3ccc(CCC(C)(C)C)c(Cl)c3)NC(=O)N(C34CC(C(=O)O)(C3)C4)C=C2C1` (single isomer, unassigned) [Example 92], the EC50 on human RORγ [1] worked out at 0.042 µM; at mouse RORγ [2], 0.019 µM.

Take `C[C@H]1CCC2(c3ccc(C4C(C(C)(C)C)C4(F)F)c(Cl)c3)NC(=O)N(C34CC(C(=O)O)(C3)C4)C=C2[C@@H]1C` (single isomer, unassigned) [Example 113]: the EC50 on human RORγ [1] came to 0.033 µM; at mouse RORγ [2] it was 0.037 µM.

Consider `CC1C2=CN(C34CCC(C(=O)O)(C3)C4)C(=O)N[C@@]2(c2ccc(CCC(C)(C)C)c(Cl)c2)COC1(C)C` (single isomer, unassigned) [Example 119], for which the EC50 at human RORγ [1] and on mouse RORγ [2] was over 10 µM throughout.

As for `CC1C2=CN(C34CC(C(=O)O)(C3)C4)C(=O)N[C@@]2(c2ccc(CCC(C)(C)C)c(Cl)c2)CCC1(C)C` (single isomer, unassigned) [Example 117], the EC50 was 4.68 µM on human RORγ [1] and 5.3 µM on mouse RORγ [2].

As to `O=C(O)CCN1C=C2CCCCC2(c2ccc(OC3CCCCC3)c(Cl)c2)NC1=O` (racemic) [Example 95], the EC50 is 2.34 µM on human RORγ [1] and 0.455 µM at mouse RORγ [2].

As to `CC1C2=CN(C34CCC(C(=O)O)(C3)C4)C(=O)N[C@]2(c2ccc(CCC(C)(C)C)c(Cl)c2)COC1(C)C` (single isomer, unassigned) [Example 120], the EC50 on human RORγ [1] was 0.013 µM; at mouse RORγ [2], 0.02 µM.

As for `CCC1CC[C@]2(c3ccc(CCC(C)(C)C)c(Cl)c3)NC(=O)N(C34CC(C(=O)O)(C3)C4)C=C2C1` (single isomer, unassigned) [Example 93], the EC50 came to 3.97 µM at human RORγ [1] and 4.23 µM on mouse RORγ [2].

Turning to `CC1C2=CN(C34CC(C(=O)O)(C3)C4)C(=O)N[C@@]2(c2ccc(CCC(C)(C)C)c(Cl)c2)COC1(C)C` (single isomer, unassigned) [Example 108], the EC50 was determined as 4.69 µM at human RORγ [1] and 5.05 µM at mouse RORγ [2].

`CN(C)CCC1CCC2(c3ccc(CCC(C)(C)C)c(Cl)c3)NC(=O)N(CCC(=O)O)C=C12` (single isomer, unassigned) [Example 28]: the EC50 at mouse RORγ [3] and on human RORγ [4] was over 20 µM in each case.

Consider `CC(C)(C)CCc1ccc(C23CC(C)(C)CC2=CN(CCC(=O)O)C(=O)N3)cc1Cl` (single isomer, unassigned) [Example 33], for which the EC50 is over 3.2 µM at mouse RORγ [3] and 2.96 µM on human RORγ [4].

Consider `COCC1CC[C@]2(c3ccc(CCC(C)(C)C)c(Cl)c3)NC(=O)N(C34CC(C(=O)O)(C3)C4)C=C2C1` (single isomer, unassigned) [Example 84], for which the EC50 at mouse RORγ [3] and at human RORγ [4] was over 10 µM each time.

In the case of `CC(C)CCOc1ccc(C23CCCCC2=CN(CCC(=O)O)C(=O)N3)cc1Cl` (racemic) [Example 59], the EC50 turned out to be 0.149 µM on mouse RORγ [3] and 0.279 µM on human RORγ [4].

For `CC(C)(C)CCc1ccc([C@]23CCC(C)(C)C2=CN(c2ccc(C(=O)O)cc2)C(=O)N3)cc1Cl` (single isomer, unassigned) [Example 9], the EC50 came to 1.47 µM at mouse RORγ [3] and 0.819 µM on human RORγ [4].

`CC(C)(C)CCc1ccc(C23COC(COC(C)(C)C)C2=CN(CCC(=O)O)C(=O)N3)cc1Cl` (single isomer, unassigned) [Example 22]: the EC50 on mouse RORγ [3] was over 8 µM; at human RORγ [4], 16.2 µM.

In the case of `CC(C)(C)CCc1ccc(C23COC(C)(C)C2=CN(CCC(=O)O)C(=O)N3)cc1Cl` (single isomer, unassigned) [Example 5], the figures for the EC50 on mouse RORγ [3] and on human RORγ [4] were 0.009 µM and 0.007 µM, respectively.

In the case of `COC1CC[C@@]2(c3ccc(CCC(C)(C)C)c(Cl)c3)NC(=O)N(CCC(=O)O)C=C2C1` (single isomer, unassigned) [Example 68], the EC50 was 0.016 µM at mouse RORγ [3] and 0.015 µM on human RORγ [4].
